Results taken from patent US20240132431A1, “METHOD FOR ALKYLATING ACIDIC FUNCTIONAL GROUP” (Chugai Seiyaku Kabushiki Kaisha, priority 2021, published 2024).

Target: T1, Bcl-2 protein (Recombinant Human Bcl-2 Protein) (Homo sapiens, UniProt P10415)
T1 construct: purchased Novus NBP2-34889
Test: Binding evaluation of mixture library compounds to Bcl-2 using AS-MS (affinity selection mass spectrometry)
Summary of the method: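 Affinity selection MS: Bcl-2 20 μM + 1200-cpd mixture, […]/cpd, Tris pH 7.4 buffer w/ Tween-20, DTT; 1 h 23° C dark; P-2 spin SEC; MeCN/MeOH extraction; RP LC/MS. ASMS Ratio(%) = (A−C)/B×100.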

T1 sequence (P10415 whole entry): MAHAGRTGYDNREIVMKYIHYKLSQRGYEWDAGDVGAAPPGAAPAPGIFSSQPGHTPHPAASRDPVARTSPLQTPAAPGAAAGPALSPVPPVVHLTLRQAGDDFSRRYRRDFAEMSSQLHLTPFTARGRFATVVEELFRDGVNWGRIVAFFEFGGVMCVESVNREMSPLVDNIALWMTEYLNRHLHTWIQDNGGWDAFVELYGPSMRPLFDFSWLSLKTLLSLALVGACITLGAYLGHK

| ASMS ratio (%) (n = 1) | ASMS ratio (%) (n = 2) | Structure (SMILES) |
| --- | --- | --- |
| 0.0 | 0.0 | CCOc1cccc(-c2ccc(CN3CCN(c4ccc(C(=O)NS(=O)(=O)C(C)(C)C)cc4)CC3)cc2F)c1 [B2L051-01, N-tert-Butylsulfonyl-4-[4-[[4-(3-ethoxyphenyl)-3-fluorophenyl]methyl]piperazin-1-yl]benzamide] |
| 0.0 | 0.0 | CCOc1cccc(-c2cc(CN3CCN(c4ccc(C(=O)NS(=O)(=O)C(C)(C)C)cc4)CC3)cc(OCC)c2)c1 [B2L055-01, N-tert-Butylsulfonyl-4-[4-[[3-ethoxy-5-(3-ethoxyphenyl)phenyl]methyl]piperazin-1-yl]benzamide] |
| 0.0 | 0.0 | CCOc1cccc(-c2cc(CN3CCN(c4ccc(C(=O)NS(=O)(=O)C(C)(C)C)cc4)CC3)cc(OC(C)C)c2)c1 [B2L057-01, N-tert-Butylsulfonyl-4-[4-[[3-(3-ethoxyphenyl)-5-propan-2-yloxyphenyl]methyl]piperazin-1-yl]benzamide] |
| 0.0 | 0.0 | CCOc1cccc(-c2cc(OC)c(CN3CCN(c4ccc(C(=O)NS(=O)(=O)C(C)(C)C)cc4)CC3)c(OC)c2)c1 [B2L059-01, N-tert-Butylsulfonyl-4-[4-[[4-(3-ethoxyphenyl)-2,6-dimethoxyphenyl]methyl]piperazin-1-yl]benzamide] |
|  | 0.0 | CCOc1cncc(-c2cc(OC)c(CN3CCN(c4ccc(C(=O)NS(=O)(=O)C(C)(C)C)cc4)CC3)c(OC)c2)c1 [B2L060-01, N-tert-Butylsulfonyl-4-[4-[[4-(5-ethoxypyridin-3-yl)-2,6-dimethoxyphenyl]methyl]piperazin-1-yl]benzamide] |
| 4.6 | −11.1 | CCOc1cccc(-c2cc(CN3CCN(c4ccc(C(=O)NS(=O)(=O)C(C)(C)C)cc4)CC3)cc(C(F)(F)F)c2)c1 [B2L061-01, N-tert-Butylsulfonyl-4-[4-[[3-(3-ethoxyphenyl)-5-(trifluoromethyl)phenyl]methyl]piperazin-1-yl]benzamide] |
| 0.0 | 0.0 | CCOc1cncc(-c2cc(CN3CCN(c4ccc(C(=O)NS(=O)(=O)C(C)(C)C)cc4)CC3)cc(C(F)(F)F)c2)c1 [B2L062-01, N-tert-Butylsulfonyl-4-[4-[[3-(5-ethoxypyridin-3-yl)-5-(trifluoromethyl)phenyl]methyl]piperazin-1-yl]benzamide] |
| 0.0 | 0.0 | CCOc1cccc(-c2cc(CN3CCN(c4ccc(C(=O)NS(=O)(=O)C(C)(C)C)cc4)CC3)cc(OC(F)(F)F)c2)c1 [B2L063-01, N-tert-Butylsulfonyl-4-[4-[[3-(3-ethoxyphenyl)-5-(trifluoromethoxy)phenyl]methyl]piperazin-1-yl]benzamide] |
| 0.0 | 0.0 | CCOc1cncc(-c2cc(CN3CCN(c4ccc(C(=O)NS(=O)(=O)C(C)(C)C)cc4)CC3)cc(OC(F)(F)F)c2)c1 [B2L064-01, N-tert-Butylsulfonyl-4-[4-[[3-(5-ethoxypyridin-3-yl)-5-(trifluoromethoxy)phenyl]methyl]piperazin-1-yl]benzamide] |
| 0.0 | 0.0 | CCOc1cccc(-c2csc(CN3CCN(c4ccc(C(=O)NS(=O)(=O)C(C)(C)C)cc4)CC3)c2)c1 [B2L067-01, N-tert-Butylsulfonyl-4-[4-[[4-(3-ethoxyphenyl)thiophen-2-yl]methyl]piperazin-1-yl]benzamide] |
| 0.0 | 0.0 | CCOc1cncc(-c2csc(CN3CCN(c4ccc(C(=O)NS(=O)(=O)C(C)(C)C)cc4)CC3)c2)c1 [B2L068-01, N-tert-Butylsulfonyl-4-[4-[[4-(5-ethoxypyridin-3-yl)thiophen-2-yl]methyl]piperazin-1-yl]benzamide] |
| 0.0 | 0.0 | CCOc1cccc(C#Cc2ccccc2CN2CCN(c3ccc(C(=O)NS(=O)(=O)C(C)(C)C)cc3)CC2)c1 [B2L069-01, N-tert-Butylsulfonyl-4-[4-[[2-[2-(3-ethoxyphenyl)ethynyl]phenyl]methyl]piperazin-1-yl]benzamide] |
| 4.9 | −4.2 | CCOc1cncc(C#Cc2ccccc2CN2CCN(c3ccc(C(=O)NS(=O)(=O)C(C)(C)C)cc3)CC2)c1 [B2L070-01, N-tert-Butylsulfonyl-4-[4-[[2-[2-(5-ethoxypyridin-3-yl)ethynyl]phenyl]methyl]piperazin-1-yl]benzamide] |
| 1.2 | 0.0 | CCOc1cccc(-c2ccccc2CN2CCN(c3ccc(C(=O)NS(=O)(=O)C(C)(C)C)nn3)CC2)c1 [B2L071-01, N-tert-Butylsulfonyl-6-[4-[[2-(3-ethoxyphenyl)phenyl]methyl]piperazin-1-yl]pyridazine-3-carboxamide] |
| −10.7 | 8.3 | CCOc1cncc(-c2ccccc2CN2CCN(c3ccc(C(=O)NS(=O)(=O)C(C)(C)C)nn3)CC2)c1 [B2L072-01, N-tert-Butylsulfonyl-6-[4-[[2-(5-ethoxypyridin-3-yl)phenyl]methyl]piperazin-1-yl]pyridazine-3-carboxamide] |
| 0.0 | 0.0 | CCOc1cccc(-c2ccc(CN3CCN(c4ccc(C(=O)NS(=O)(=O)C(C)(C)C)nn4)CC3)cc2C)c1 [B2L073-01, N-tert-Butylsulfonyl-6-[4-[[4-(3-ethoxyphenyl)-3-methylphenyl]methyl]piperazin-1-yl]pyridazine-3-carboxamide] |
| −1.0 | 1.4 | CCOc1cncc(-c2ccc(CN3CCN(c4ccc(C(=O)NS(=O)(=O)C(C)(C)C)nn4)CC3)cc2C)c1 [B2L074-01, N-tert-Butylsulfonyl-6-[4-[[4-(5-ethoxypyridin-3-yl)-3-methylphenyl]methyl]piperazin-1-yl]pyridazine-3-carboxamide] |
| 0.0 | 33.9 | CCOc1cccc(-c2ccc(CN3CCN(c4ccc(C(=O)NS(=O)(=O)C(C)(C)C)nn4)CC3)c(CC)c2)c1 [B2L075-01, N-tert-Butylsulfonyl-6-[4-[[4-(3-ethoxyphenyl)-2-ethylphenyl]methyl]piperazin-1-yl]pyridazine-3-carboxamide] |
| 1.8 | −0.3 | CCOc1cncc(-c2ccc(CN3CCN(c4ccc(C(=O)NS(=O)(=O)C(C)(C)C)nn4)CC3)c(CC)c2)c1 [B2L076-01, N-tert-Butylsulfonyl-6-[4-[[4-(5-ethoxypyridin-3-yl)-2-ethylphenyl]methyl]piperazin-1-yl]pyridazine-3-carboxamide] |
| 0.0 | 0.0 | CCOc1cccc(-c2ccc(CN3CCN(c4ccc(C(=O)NS(=O)(=O)C(C)(C)C)nn4)CC3)cc2F)c1 [B2L077-01, N-tert-Butylsulfonyl-6-[4-[[4-(3-ethoxyphenyl)-3-fluorophenyl]methyl]piperazin-1-yl]pyridazine-3-carboxamide] |
| 1.1 | −0.7 | CCOc1cncc(-c2ccc(CN3CCN(c4ccc(C(=O)NS(=O)(=O)C(C)(C)C)nn4)CC3)cc2F)c1 [B2L078-01] |
| 0.0 | 0.0 | CCOc1cccc(-c2cc(CN3CCN(c4ccc(C(=O)NS(=O)(=O)C(C)(C)C)nn4)CC3)cc(OCC)c2)c1 [B2L081-01, N-tert-Butylsulfonyl-6-[4-[[3-ethoxy-5-(3-ethoxyphenyl)phenyl]methyl]piperazin-1-yl]pyridazine-3-carboxamide] |
| 2.6 | −1.2 | CCOc1cncc(-c2cc(CN3CCN(c4ccc(C(=O)NS(=O)(=O)C(C)(C)C)nn4)CC3)cc(OCC)c2)c1 [B2L082-01, N-tert-Butylsulfonyl-6-[4-[[3-ethoxy-5-(5-ethoxypyridin-3-yl)phenyl]methyl]piperazin-1-yl]pyridazine-3-carboxamide] |
| 0.0 | 0.0 | CCOc1cccc(-c2cc(CN3CCN(c4ccc(C(=O)NS(=O)(=O)C(C)(C)C)nn4)CC3)cc(OC(C)C)c2)c1 [B2L083-01, N-tert-Butylsulfonyl-6-[4-[[3-(3-ethoxyphenyl)-5-propan-2-yloxyphenyl]methyl]piperazin-1-yl]pyridazine-3-carboxamide] |
| −3.0 | −1.9 | CCOc1cncc(-c2cc(CN3CCN(c4ccc(C(=O)NS(=O)(=O)C(C)(C)C)nn4)CC3)cc(OC(C)C)c2)c1 [B2L084-01, N-tert-Butylsulfonyl-6-[4-[[3-(5-ethoxypyridin-3-yl)-5-propan-2-yloxyphenyl]methyl]piperazin-1-yl]pyridazine-3-carboxamide] |
| 0.0 | 0.0 | CCOc1cccc(-c2cc(OC)c(CN3CCN(c4ccc(C(=O)NS(=O)(=O)C(C)(C)C)nn4)CC3)c(OC)c2)c1 [B2L085-01, N-tert-Butylsulfonyl-6-[4-[[4-(3-ethoxyphenyl)-2,6-dimethoxyphenyl]methyl]piperazin-1-yl]pyridazine-3-carboxamide] |

| Structure (SMILES) | ASMS ratio (%) (n = 1) | ASMS ratio (%) (n = 2) |
| --- | --- | --- |
| CCOc1cncc(-c2ccc(CN3CCN(c4ccc(C(=O)NS(=O)(=O)C(C)(C)C)cc4)CC3)cc2F)c1 [B2L052-01] | 2.7 | 1.0 |
| CCOc1cccc(-c2ccc(CN3CCN(c4ccc(C(=O)NS(=O)(=O)C(C)(C)C)cc4)CC3)c(OC)c2)c1 [B2L053-01] | 0.0 | 0.0 |
| CCOc1cncc(-c2ccc(CN3CCN(c4ccc(C(=O)NS(=O)(=O)C(C)(C)C)cc4)CC3)c(OC)c2)c1 [B2L054-01] | 0.0 | 0.0 |
| CCOc1cncc(-c2cc(CN3CCN(c4ccc(C(=O)NS(=O)(=O)C(C)(C)C)cc4)CC3)cc(OCC)c2)c1 [B2L056-01] | 0.0 | 0.0 |
| CCOc1cncc(-c2cc(CN3CCN(c4ccc(C(=O)NS(=O)(=O)C(C)(C)C)cc4)CC3)cc(OC(C)C)c2)c1 [B2L058-01] | 0.0 | 0.0 |
